# From patent publication US20160209428A1, “DIAGNOSTIC AND PREDICTIVE METABOLITE PATTERNS FOR DISORDERS AFFECTING THE BRAIN AND NERVOUS SYSTEM” (THE REGENTS OF THE UNIVERSITY OF CALIFORNIA, priority 2013, published 2016)
# Key:
# [1] = test system: Fragile X (Fmr1) knockout mouse; assay: Social preference and social novelty, Fragile X model; type: in vivo; settings: male Fmr1 KO mice, weekly suramin 20 mg/kg ip
# Description: A Fragile X (Fmr1) knockout mouse was used on the FVB strain background. It has the genotype: FVB.129P2-Pde6b^+ Tyr^c-ch Fmr1^tm1Cgr/J (Jackson Stock #004624). The Fmr1^tm1Cgr allele contains a neomycin resistance cassette replacing exon 5 that results in a null allele that makes no FMR mRNA or protein. The control strain used has the genotype: FVB.129P2-Pde6b^+ Tyr^c-ch/AntJ (Jackson Stock #004828). […] The wild-type Pde6b locus from the 129P2 ES cells corrects the retinal degeneration phenotype that produces blindness by 5 weeks of age in typical FVB mice. The Fmr1 locus is X-linked, so males are hemizygous and females are homozygous for the knockout. A metabolomic analysis on Fmr1 knockout mice on the C57BL/6J background was also performed to refine the understanding of which metabolic disturbances were directly related to the Fmr1 knockout, and which were the result of changes in genetic background. For these studies the same Fmr1^tm1Cgr knockout allele bred on the C57BL6/J background was used. These animals had the genotype: B6.129P2-Fmr1^tm1Cgr/J (Jackson Stock#003025). […]
# Altered social behavior is a measure of autism-like features in mouse models of autism. […] There was also a 35% reduction in social novelty, as measured by the time spent interacting with a novel mouse compared to a familiar mouse. […]
# [2] = test system: cerebral synaptosomes; assay: Synaptosome isolation and ultrastructure (electron microscopy); type: in vivo, mouse; settings: suramin-treated Fmr1 KO mice
# Description: Cerebral samples were collected, homogenized and synaptosomes isolated by discontinuous Percoll gradient centrifugation, drop dialyzed, glutaraldehyde fixed, post-fixed in osmium tetroxide, embedded, sectioned, and stained with uranyl acetate for transmission electron microscopy. Samples from the FVB control animals (+/−suramin) were not available for study by either electron microscopy or Western analysis.
# In the present study of the Fragile X model, saline-treated Fmr1 knockout mice had cerebral synaptosomes that also contained an electron dense matrix, and fragile, hypomorphic post-synaptic densities.
smiles,measurement,setting,value
"Cc1ccc(C(=O)Nc2ccc(S(=O)(=O)O)c3cc(S(=O)(=O)O)cc(S(=O)(=O)O)c23)cc1NC(=O)c1cccc(NC(=O)Nc2cccc(C(=O)Nc3cc(C(=O)Nc4ccc(S(=O)(=O)O)c5cc(S(=O)(=O)O)cc(S(=O)(=O)O)c45)ccc3C)c2)c1 [Suramin, suramin]","altered social behavior (social preference, social novelty)",[1],corrected
same,cerebral synaptosome ultrastructure,[2],near-normal appearing cerebral synaptosomes
